According to patent publication US11453683B1, “KRas G12D inhibitors” (Mirati Therapeutics, Inc., priority 2019, dated 2022):

Test system: KRas G12D-mediated phosphorylation of ERK
Assay: Inhibition of KRas G12D-mediated phosphorylation of ERK in AGS cells
Format: cell-based
Conditions: Homo sapiens; AGS cells expressing G12D, 3 hours, phospho-ERK normalized to GAPDH
Procedure: Cells were plated in tissue culture treated 96 well plates at a density of 40,000 cells/well and allowed to attach for 12-14 hours. Diluted compounds were then added in a final concentration of 0.5% DMSO. After 3 hours, the medium was removed, 150 μL of 4.0% formaldehyde was added and the plates incubated at room temperature for 20 minutes. The plates were washed with PBS, and permeabilized with 150 μL of ice cold 100% methanol for 10 minutes. Non-specific antibody binding to the plates was blocked using 100 μL Licor blocking buffer (Li-Cor Biotechnology, Lincoln Nebr.) for 1 hour at room temperature.
The amount of phospho-ERK was determined using an antibody specific for the phosphorylated form of ERK and compared to the amount of GAPDH. Primary antibodies used for the detection were added as follows: Phospho-ERK (Cell Signaling cs-9101) diluted 1:500 and GAPDH (Millipore MAB374) diluted 1:5000 in Licor block+0.05% Tween 20. The plates were incubated for 2 hours at room temperature. The plates were washed with PBS+0.05% Tween 20.
Secondary antibodies used to visualize primary antibodies were added as follows: Anti-rabbit-680 diluted 1:1000 and Anti-mouse-800 diluted 1:1000 both in Licor block+0.05% TweeN2O, and were incubated for 1 hour at room temperature. The plates were washed with PBS+0.05% Tween 20. A 100 μL aliquot of PBS was added to each well and the plates were read on a Li-Cor Odyssey CLX plate reader.
The phospho-ERK (Thr202/Tyr204 signal was normalized to the GAPDH signal for each well and percent of DMSO control values were calculated. IC50 values were generated using a 4-parameter fit of the dose response curve

## CCC1(N)CN(c2nc(N3C[C@H]4CC[C@@H](C3)N4)c3cnc(-c4cc(O)cc5ccccc45)c(F)c3n2)C1 [Example 126, 4-(2-(3-amino-3-ethylazetidin-1-yl)-4-((1R,5S)-3,8-diazabicyclo[3.2.1]octan-3-yl)-8-fluoropyrido[4,3-d]pyrimidin-7-yl)naphthalen-2-ol]
  IC50: 3.47 µM

## Fc1c(-c2cccc3cccc(C4CC4)c23)ncc2c(N3C[C@H]4CC[C@@H](C3)N4)nc(OCC34CCCN3CCC4)nc12 [Example 335, 4-((1R,5S)-3,8-diazabicyclo[3.2.1]octan-3-yl)-7-(8-cyclopropylnaphthalen-1-yl)-8-fluoro-2-((tetrahydro-1H-pyrrolizin-7a(5H)-yl)methoxy)pyrido[4,3-d]pyrimidine]
  IC50: 10.4 µM

## Fc1c(-c2cccc3cccc(Cl)c23)ncc2c(N3CC4CC(F)C(C3)N4)nc(OC[C@@]34CCCN3C[C@H](F)C4)nc12 (stereo partly shown) [Example 396, 7-(8-chloronaphthalen-1-yl)-8-fluoro-4-(6-fluoro-3,8-diazabicyclo[3.2.1]octan-3-yl)-2-((2-fluorotetrahydro-1H-pyrrolizin-7a(5H)-yl)methoxy)pyrido[4,3-d]pyrimidine]
  IC50: 8.17 µM

## Fc1c(-c2cccc3cccc(Cl)c23)ncc2c(N3C[C@H]4CC[C@@H](C3)N4)nc(OCCCN3C[C@@H]4C[C@H]3CO4)nc12 [Example 103, (1S,4S)-5-(3-((4-((1R,5S)-3,8-diazabicyclo[3.2.1]octan-3-yl)-7-(8-chloronaphthalen-1-yl)-8-fluoropyrido[4,3-d]pyrimidin-2-yl)oxy)propyl)-2-oxa-5-azabicyclo[2.2.1]heptane]
  IC50: > 16.7 µM

## FCCc1cccc2cccc(-c3ncc4c(N5C[C@H]6CC[C@@H](C5)N6)nc(OCC56CCCN5CCC6)nc4c3F)c12 [Example 248, 4-((1R,5S)-3,8-diazabicyclo[3.2.1]octan-3-yl)-8-fluoro-7-(8-(2-fluoroethyl)naphthalen-1-yl)-2-((tetrahydro-1H-pyrrolizin-7a(5H)-yl)methoxy)pyrido[4,3-d]pyrimidine]
  IC50: 1.08 µM

## Fc1c(-c2c(OC(F)(F)F)ccc3[nH]ncc23)ncc2c(N3C[C@H]4CC[C@@H](C3)N4)nc(OCC34CCCN3CCC4)nc12 [Example 258, 4-((1R,5S)-3,8-diazabicyclo[3.2.1]octan-3-yl)-8-fluoro-2-((hexahydro-1H-pyrrolizin-7a-yl)methoxy)-7-(5-(trifluoromethoxy)-1H-indazol-4-yl)pyrido[4,3-d]pyrimidine]
  IC50: 1.46 µM

## Oc1cc(-c2ncc3c(N4C[C@H]5CC[C@@H](C4)N5)nc(OC[C@@]45CCCN4C[C@H](F)C5)nc3c2F)c2c(Cl)cccc2c1 [Example 251, 4-(4-((1R,5S)-3,8-diazabicyclo[3.2.1]octan-3-yl)-8-fluoro-2-(((2R,7aS)-2-fluorohexahydro-1H-pyrrolizin-7a-yl)methoxy)pyrido[4,3-d]pyrimidin-7-yl)-5-chloronaphthalen-2-ol]
  IC50: 0.0103 µM

## CN1C[C@H](F)C[C@H]1COc1nc(N2C[C@H]3CC[C@@H](C2)N3)c2cnc(-c3cc(O)cc4ccccc34)c(F)c2n1 [Example 16, 4-(4-((1R,5S)-3,8-diazabicyclo[3.2.1]octan-3-yl)-8-fluoro-2-(((2S,4R)-4-fluoro-1-methylpyrrolidin-2-yl)methoxy)pyrido[4,3-d]pyrimidin-7-yl)naphthalen-2-ol]
  IC50: 3.83 µM

## C#Cc1c(F)ccc2cc(O)cc(-c3ncc4c(N5C[C@H]6CC[C@@H](C5)N6)nc(OCC56CCCN5CCC6)nc4c3F)c12 [Example 232, 4-(4-((1R,5S)-3,8-diazabicyclo[3.2.1]octan-3-yl)-8-fluoro-2-((tetrahydro-1H-pyrrolizin-7a(5H)-yl)methoxy)pyrido[4,3-d]pyrimidin-7-yl)-5-ethynyl-6-fluoronaphthalen-2-ol]
  IC50: 0.0152 µM

## CN1CC(COc2nc(N3C[C@H]4CC[C@@H](C3)N4)c3cnc(-c4cccc5cccc(Cl)c45)c(F)c3n2)CC1=O (stereo partly drawn) [Example 131, 4-(((4-((1R,5S)-3,8-diazabicyclo[3.2.1]octan-3-yl)-7-(8-chloronaphthalen-1-yl)-8-fluoropyrido[4,3-d]pyrimidin-2-yl)oxy)methyl)-1-methylpyrrolidin-2-one]
  IC50: > 16.7 µM

## OCCCOc1nc(N2C[C@H]3CC[C@@H](C2)N3)c2cnc(-c3cc(O)cc4ccccc34)c(F)c2n1 [Example 75, 4-(4-((1R,5S)-3,8-diazabicyclo[3.2.1]octan-3-yl)-8-fluoro-2-(3-hydroxypropoxy)pyrido[4,3-d]pyrimidin-7-yl)naphthalen-2-ol]
  IC50: > 16.7 µM

## CCc1cccc2cncc(-c3ncc4c(N5CC6CCC(C5)N6)nc(OCC56CCCN5C[C@H](F)C6)nc4c3F)c12 (mixture of isomers) [Example 324, 4-((1R,5S)-3,8-diazabicyclo[3.2.1]octan-3-yl)-7-(5-ethylisoquinolin-4-yl)-8-fluoro-2-((2-fluorotetrahydro-1H-pyrrolizin-7a(5H)-yl)methoxy)pyrido[4,3-d]pyrimidine]
  IC50: 0.864 µM

## Fc1c(-c2cccc3cccc(Cl)c23)ncc2c(N3CC4CCC(C3)N4)nc(OC[C@@]34CCCN3C[C@@H](C(F)(F)F)C4)nc12 (mixture of isomers) [Example 382, 4-((1R,5S)-3,8-diazabicyclo[3.2.1]octan-3-yl)-7-(8-chloronaphthalen-1-yl)-8-fluoro-2-(((2S,7aS)-2-(trifluoromethyl)tetrahydro-1H-pyrrolizin-7a(5H)-yl)methoxy)pyrido[4,3-d]pyrimidine) (mixture of cis diastereomers)]
  IC50: > 16.7 µM

## CN1CCC[C@H]1COc1nc(N2C[C@H]3CC[C@@H](C2)N3)c2cnc(-c3cc(O)c(Br)c4ccccc34)c(F)c2n1 [Example 14, 4-(4-((1R,5S)-3,8-diazabicyclo[3.2.1]octan-3-yl)-8-fluoro-2-(((S)-1-methylpyrrolidin-2-yl)methoxy)pyrido[4,3-d]pyrimidin-7-yl)-1-bromonaphthalen-2-ol]
  IC50: 4.84 µM

## OCCOc1nc(N2C[C@H]3CC[C@@H](C2)N3)c2cnc(-c3cc(O)cc4ccccc34)c(F)c2n1 [Example 69, 4-(4-((1R,5S)-3,8-diazabicyclo[3.2.1]octan-3-yl)-8-fluoro-2-(2-hydroxyethoxy)pyrido[4,3-d]pyrimidin-7-yl)naphthalen-2-ol]
  IC50: > 16.7 µM

## Cn1ccnc1CCOc1nc(N2C[C@H]3CC[C@@H](C2)N3)c2cnc(-c3cccc4cccc(Cl)c34)c(F)c2n1 [Example 114, 4-((1R,5S)-3,8-diazabicyclo[3.2.1]octan-3-yl)-7-(8-chloronaphthalen-1-yl)-8-fluoro-2-(2-(1-methyl-1H-imidazol-2-yl)ethoxy)pyrido[4,3-d]pyrimidine]
  IC50: 10.3 µM

## C[C@H]1C[C@H]1c1ccccc1-c1ncc2c(N3C[C@H]4CC[C@@H](C3)N4)nc(OCC34CCCN3CCC4)nc2c1F [Example 287, 4-((1R,5S)-3,8-diazabicyclo[3.2.1]octan-3-yl)-8-fluoro-2-((hexahydro-1H-pyrrolizin-7a-yl)methoxy)-7-(2-((1R,2S)-2-methylcyclopropyl)phenyl)pyrido[4,3-d]pyrimidine]
  IC50: 8.07 µM

## CNC(=O)OC[C@H]1CC[C@@]2(COc3nc(N4CC5CCC(C4)N5)c4cnc(-c5cccc6cccc(Cl)c56)c(F)c4n3)CCCN12 [Example 408, (7a-(((4-(3,8-diazabicyclo[3.2.1]octan-3-yl)-7-(8-chloronaphthalen-1-yl)-8-fluoropyrido[4,3-d]pyrimidin-2-yl)oxy)methyl)hexahydro-1H-pyrrolizin-3-yl)methyl methylcarbamate]
  IC50: 0.238 µM

## Oc1cc(-c2ncc3c(N4C[C@H]5CC[C@@H](C4)N5)nc(N4CCC4)nc3c2F)c2ccccc2c1 [Example 119, 4-(2-(azetidin-1-yl)-4-((1R,5S)-3,8-diazabicyclo[3.2.1]octan-3-yl)-8-fluoropyrido[4,3-d]pyrimidin-7-yl)naphthalen-2-ol 2,2,2-trifluoroacetate]
  IC50: 3.7 µM

## CN1CCC[C@H]1COc1nc(N2C[C@H]3CC[C@@H](C2)N3)c2cnc(-c3cccc4ccc(F)cc34)c(F)c2n1 [Example 19, 4-((1R,5S)-3,8-diazabicyclo[3.2.1]octan-3-yl)-8-fluoro-7-(7-fluoronaphthalen-1-yl)-2-(((S)-1-methylpyrrolidin-2-yl)methoxy)pyrido[4,3-d]pyrimidine]
  IC50: > 16.7 µM

## CCc1c(F)ccc2cccc(-c3ncc4c(N5CC6CCC(C5)N6)nc(OC[C@@]56CCCN5C[C@H](F)C6)nc4c3F)c12 (stereo in doubt) [Example 381, 4-((1R,5S)-3,8-diazabicyclo[3.2.1]octan-3-yl)-7-(8-ethyl-7-fluoronaphthalen-1-yl)-8-fluoro-2-((2-fluorotetrahydro-1H-pyrrolizin-7a(5H)-yl)methoxy)pyrido[4,3-d]pyrimidine]
  IC50: 0.708 µM

## COC(c1ccc(O)cc1-c1ncc2c(N3CC4CCC(C3)N4)nc(OC[C@@]34CCCN3C[C@H](F)C4)nc2c1F)C(F)(F)F (stereo in doubt) [Example 390, 3-(4-((1R,5S)-3,8-diazabicyclo[3.2.1]octan-3-yl)-8-fluoro-2-((2-fluorotetrahydro-1H-pyrrolizin-7a(5H)-yl)methoxy)pyrido[4,3-d]pyrimidin-7-yl)-4-(2,2,2-trifluoro-1-methoxyethyl)phenol]
  IC50: 6.11 µM
